{"source": "patent US6506785B2", "about": "“Treating or preventing the early stages of degeneration of articular cartilage or subchondral bone in mammals using carprofen and derivatives” (Pfizer, Inc., priority 1998, dated 2003)", "key": {"[1]": {"experiment": "Clearance rates of carprofen-genus enantiomers", "conditions": "in vivo", "text": "The above-recited ranges of dosage amounts, which are also recited elsewhere herein, are for racemic mixtures of compounds of Formula (I) having a chiral carbon, or for single compounds of Formula (I) where no chiral carbon atom is present. As will be appreciated by the person of ordinary skill in this art, i.e., a practicing veterinarian or a person with an advanced degree and experience in animal health issues, where other than a racemic mixture of compounds of Formula (I) is involved, the chondroprotective therapeutically effective amount will vary. For example, if 85% of the mixture is (S)-enantiomer, that will ordinarily tend to reduce the necessary dosage. […] However, the degree of difference between the activities of the two enantiomers must also take into account other differences, especially differences in pharmacokinetics between the two enantiomers, in determining the proper dosage. […] This, in turn, will have a calculable impact on the amount of active compound to be administered. Ordinarily, such determinations will be made on a case-by-case basis by the artisan, but these are well within the ordinary skill of the art, as is instituting the methods whereby data necessary for the supporting calculations may be obtained."}, "[2]": {"conditions": "in vivo, po", "method": "Accordingly, a useful controlled release dosage form of carprofen in accordance with the present invention is one which maintains a carprofen plasma level greater than 2 μg/mL for most of the day after a single oral dose at 2 mg/lb.\nImmediate release carprofen dosage forms containing doses of 1.8, 1.6, and 1.4 mg/lb maintain a plasma carprofen concentration above 10 μg/mL for 9.5 hrs, 8.5 hrs, and 7.5 hrs, respectively. Preferred 1.8 mg/lb oral controlled release carprofen dosage forms maintain a plasma carprofen concentration above 10 μg/mL for greater than 9.5 hrs. Likewise, the threshold durations for 1.6 mg/lb and 1.4 mg/lb doses are 8.5 hrs and 7.5 hrs, respectively. The performance characteristics for preferred oral controlled release carprofen dosage forms at doses higher than 2 mg/lb or less than 1.4 mg/lb can be similarly calculated, assuming linear pharmacokinetics. More preferred oral controlled release carprofen dosage forms are those which maintain a plasma carprofen concentration greater than 10 μg/mL for a period of time greater than or equal to that observed when an immediate release carprofen dosage form is dosed at any higher dose. […]"}, "[3]": {"tested_on": "cultured osteoarthritic mammal chondrocytes / cartilage explants", "conditions": "cited from earlier work"}, "articular cartilage": {"tested_on": "articular cartilage", "conditions": "cited from earlier work"}, "[4]": {"tested_on": "atrophied mammal articular cartilage", "conditions": "in vivo; cited from earlier work"}, "[5]": {"tested_on": "cartilage homeostasis in osteoarthritic joints", "conditions": "compared with control joints; cited from earlier work"}}}
{"compound": "C[C@H](C(=O)O)c1ccc2c(c1)[nH]c1ccc(Cl)cc12", "note": "(single isomer, unassigned) [(+)(S) enantiomer]", "values": [{"measurement": "clearance rates, (+)(S) versus (−)(R) enantiomer", "setting": "[1]", "result": "significant difference in clearance rates"}]}
{"compound": "C[C@@H](C(=O)O)c1ccc2c(c1)[nH]c1ccc(Cl)cc12", "note": "(single isomer, unassigned) [(−)(R) enantiomer]", "values": [{"measurement": "clearance rates, (+)(S) versus (−)(R) enantiomer", "setting": "[1]", "result": "significant difference in clearance rates"}]}
{"compound": "CC(C(=O)O)c1ccc2c(c1)[nH]c1ccc(Cl)cc12", "note": "(stereo not drawn) [carprofen, 6-chloro-α-methyl-9H-carbazole-2-acetic acid]", "values": [{"measurement": "time plasma carprofen levels are maintained above approximately 10 μg/mL", "setting": "[2]", "result": 10.5, "unit": "h"}, {"measurement": "cartilage GAG synthesis", "setting": "[3]; carprofen concentrations of 1 and 10", "result": "selectively stimulating new cartilage GAG synthesis"}, {"measurement": "cartilage proteoglycan breakdown", "setting": "[3]; carprofen concentrations of 1 and 10 μL/ml", "result": "without any direct effect on cartilage proteoglycan breakdown"}]}
{"compound": "Pentosan polysulfate [PPS]", "values": [{"measurement": "articular cartilage damage", "setting": "articular cartilage; gross and histologic evaluation", "result": "significantly decrease articular cartilage damage"}, {"measurement": "articular cartilage proteoglycan content", "setting": "articular cartilage; in vivo", "result": "maintenance of normal articular cartilage proteoglycan content"}]}
{"compound": "hyaluronic acid [HA]", "values": [{"measurement": "effect on atrophied articular cartilage", "setting": "[4]", "result": "chondrostabilizing effect"}]}
{"compound": "polysulfated glycosaminoglycan [PSGAG]", "values": [{"measurement": "microscopic structural alteration", "setting": "[5]", "result": "decreased microscopic structural alteration"}, {"measurement": "proteinase activity", "setting": "[5]", "result": "decreased proteinase activity"}, {"measurement": "proteoglycan in cartilage", "setting": "[5]", "result": "retention of proteoglycan in cartilage"}]}
